Where “and” joins values, the source holds several entries; their conditions need not be identical. Identical values can stand only once.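 Briefly, cells in 96-well plates were exposed to five compound concentrations for 48 h, and endpoints were estimated by linear interpolation. Abbreviation: GI50, concentration required for 50% inhibition of growth. TGI is the concentration that stops growth completely.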
What was measured:
Assay in all cases: NCI tumour cell line growth inhibition, 48 h
NCI-H460 lung = system: NCI-H460 lung
HL-60(TB) leukemia = system: HL-60(TB) leukemia
SR leukemia = system: SR leukemia
HCC-2998 colon = system: HCC-2998 colon
OVCAR-8 ovarian = system: OVCAR-8 ovarian
LOX IMVI melanoma = system: LOX IMVI melanoma
HT29 colon = system: HT29 colon
CCRF-CEM leukemia = system: CCRF-CEM leukemia
HCT-15 colon = system: HCT-15 colon
UACC-257 melanoma = system: UACC-257 melanoma
CAKI-1 renal = system: CAKI-1 renal
MALME-3M melanoma = system: MALME-3M melanoma
786-0 renal = system: 786-0 renal
SF-268 CNS = system: SF-268 CNS
DMS 114 small cell lung = system: DMS 114 small cell lung
OVCAR-3 ovarian = system: OVCAR-3 ovarian
RPMI-8226 leukemia = system: RPMI-8226 leukemia
K-562 leukemia = system: K-562 leukemia
U251 CNS = system: U251 CNS
KM12 colon = system: KM12 colon
HCT-116 colon = system: HCT-116 colon
COLO 205 colon = system: COLO 205 colon
NCI-H522 lung = system: NCI-H522 lung
NCI-H226 lung = system: NCI-H226 lung
MOLT-4 leukemia = system: MOLT-4 leukemia
SK-OV-3 ovarian = system: SK-OV-3 ovarian
M14 melanoma = system: M14 melanoma
KM20L2 colon = system: KM20L2 colon
SF-295 CNS = system: SF-295 CNS
TK-10 renal = system: TK-10 renal
SK-MEL-2 melanoma = system: SK-MEL-2 melanoma
EKVX NSCLC = system: EKVX NSCLC
SN12C renal = system: SN12C renal
SW-620 colon = system: SW-620 colon
XF 498 CNS = system: XF 498 CNS
OVCAR-5 ovarian = system: OVCAR-5 ovarian
SF-539 CNS = system: SF-539 CNS
NCI-H23 lung = system: NCI-H23 lung
DMS 273 small cell lung = system: DMS 273 small cell lung
SNB-19 CNS = system: SNB-19 CNS
A549 NSCLC = system: A549 NSCLC
UO-31 renal = system: UO-31 renal
ACHN renal = system: ACHN renal
SNB-78 CNS = system: SNB-78 CNS
SK-MEL-28 melanoma = system: SK-MEL-28 melanoma
M19-MEL melanoma = system: M19-MEL melanoma
OVCAR-4 ovarian = system: OVCAR-4 ovarian
HOP-62 NSCLC = system: HOP-62 NSCLC
SNB-75 CNS = system: SNB-75 CNS
UACC-62 melanoma = system: UACC-62 melanoma
IGROV1 ovarian = system: IGROV1 ovarian
DLD-1 colon = system: DLD-1 colon
A498 renal = system: A498 renal
SK-MEL-5 melanoma = system: SK-MEL-5 melanoma
HOP-92 NSCLC = system: HOP-92 NSCLC
RXF 393 renal = system: RXF 393 renal
LXFL 529 NSCLC = system: LXFL 529 NSCLC
HOP-18 NSCLC = system: HOP-18 NSCLC

## Cc1cnc2ccc(C)c([N+](=O)[O-])c2c1NCCCN(C)C
NCI-H460 lung
  TGI: > 100 µM
HL-60(TB) leukemia
  TGI: > 100 µM
SR leukemia
  TGI: > 100 µM
HCC-2998 colon
  TGI: > 100 µM
OVCAR-8 ovarian
  TGI: > 100 µM
LOX IMVI melanoma
  TGI: > 100000 nM
HT29 colon
  TGI: > 100 µM
CCRF-CEM leukemia
  TGI: > 100 µM
HCT-15 colon
  TGI: > 100 µM
UACC-257 melanoma
  TGI: > 100 µM
CAKI-1 renal
  TGI: > 100 µM
MALME-3M melanoma
  TGI: > 100 µM
786-0 renal
  TGI: > 100 µM
SF-268 CNS
  TGI: > 100 µM
DMS 114 small cell lung
  TGI: > 100 µM
OVCAR-3 ovarian
  TGI: > 100 µM
RPMI-8226 leukemia
  TGI: > 100 µM
K-562 leukemia
  TGI: > 100 µM
U251 CNS
  TGI: > 100 µM
KM12 colon
  TGI: > 100 µM
HCT-116 colon
  TGI: > 100 µM
COLO 205 colon
  TGI: > 100 µM
NCI-H522 lung
  TGI: > 100 µM
NCI-H226 lung
  TGI: > 100 µM
MOLT-4 leukemia
  TGI: > 100 µM
SK-OV-3 ovarian
  TGI: > 100 µM
M14 melanoma
  TGI: > 100 µM
KM20L2 colon
  TGI: > 100 µM
SF-295 CNS
  TGI: > 100 µM
TK-10 renal
  TGI: > 100 µM
SK-MEL-2 melanoma
  TGI: > 100 µM
EKVX NSCLC
  TGI: > 100 µM
SN12C renal
  TGI: > 100 µM
SW-620 colon
  TGI: > 100 µM
XF 498 CNS
  TGI: > 100 µM
OVCAR-5 ovarian
  TGI: > 100 µM
SF-539 CNS
  TGI: > 100 µM
NCI-H23 lung
  TGI: > 100 µM
DMS 273 small cell lung
  TGI: > 100 µM
SNB-19 CNS
  TGI: > 100 µM
A549 NSCLC
  TGI: > 100 µM
UO-31 renal
  TGI: > 100 µM
ACHN renal
  TGI: > 100 µM
SNB-78 CNS
  TGI: > 100 µM
SK-MEL-28 melanoma
  TGI: > 100 µM
M19-MEL melanoma
  TGI: > 100 µM
OVCAR-4 ovarian
  TGI: > 100 µM
HOP-62 NSCLC
  TGI: > 100 µM

## CCN(CC)CCCNc1nccc2c(C)c3c(cc12)c1cnccc1n3C
NCI-H460 lung
  TGI: 0.14 µM
HCC-2998 colon
  TGI: 0.256 µM
OVCAR-8 ovarian
  TGI: 1.25 µM
LOX IMVI melanoma
  TGI: 268 nM
HT29 colon
  TGI: 1.02 µM
CCRF-CEM leukemia
  TGI: 0.415 µM
HCT-15 colon
  TGI: 0.779 µM
CAKI-1 renal
  TGI: 1.03 µM
786-0 renal
  TGI: 1.2 µM
SF-268 CNS
  TGI: 1.69 µM
DMS 114 small cell lung
  TGI: 0.463 µM
OVCAR-3 ovarian
  TGI: 0.735 µM
K-562 leukemia
  TGI: 1.04 µM
U251 CNS
  TGI: 1.77 µM
HCT-116 colon
  TGI: 0.378 µM
COLO 205 colon
  TGI: 1.4 µM
SNB-75 CNS
  TGI: 1.74 µM
SK-OV-3 ovarian
  TGI: 2.73 µM
M14 melanoma
  TGI: 1.12 µM
KM20L2 colon
  TGI: 1.93 µM
UACC-62 melanoma
  TGI: 2250 nM
IGROV1 ovarian
  TGI: 2750 nM
DLD-1 colon
  TGI: 266 nM
SF-295 CNS
  TGI: 1.31 µM
A498 renal
  TGI: 2.61 µM
TK-10 renal
  TGI: 3.26 µM
SK-MEL-5 melanoma
  TGI: 1820 nM
EKVX NSCLC
  TGI: 1.52 µM
SN12C renal
  TGI: 1.75 µM
SW-620 colon
  TGI: 1.48 µM
XF 498 CNS
  TGI: 0.923 µM
SF-539 CNS
  TGI: 0.609 µM
NCI-H23 lung
  TGI: 1.18 µM
DMS 273 small cell lung
  TGI: 0.181 µM
SNB-19 CNS
  TGI: 1.51 µM
A549 NSCLC
  TGI: 1.37 µM
UO-31 renal
  TGI: 2.32 µM
ACHN renal
  TGI: 2.41 µM
SNB-78 CNS
  TGI: 2.76 µM
SK-MEL-28 melanoma
  TGI: 1.47 µM
M19-MEL melanoma
  TGI: 2.67 µM
OVCAR-4 ovarian
  TGI: 0.131 µM
HOP-62 NSCLC
  TGI: 0.571 µM

## CSc1nc(-c2ccc(Cl)cc2)c(C#N)c(=O)n1C1OC(COC(C)=O)C(OC(C)=O)C(OC(C)=O)C1OC(C)=O (stereo not given)
HOP-92 NSCLC
  GI50: 10.4 µM and 4.43 µM
  TGI: 32 µM and 82.7 µM
NCI-H460 lung
  GI50: 27.3 µM and > 100 µM
  TGI: > 100 µM
HL-60(TB) leukemia
  TGI: > 100 µM
SR leukemia
  TGI: > 100 µM
HCC-2998 colon
  TGI: > 100 µM
OVCAR-8 ovarian
  TGI: > 100 µM
HT29 colon
  GI50: 29.3 µM and > 100 µM
  TGI: > 100 µM
CCRF-CEM leukemia
  GI50: > 7.5 µM and 65.1 µM
  TGI: > 100 µM
RXF 393 renal
  GI50: 10.6 µM and > 100 µM
  TGI: 25.6 µM and > 100 µM
HCT-15 colon
  TGI: > 100 µM
UACC-257 melanoma
  GI50: 14.5 µM and > 100 µM
  TGI: 38.8 µM and > 100 µM
CAKI-1 renal
  TGI: > 100 µM
MALME-3M melanoma
  GI50: 30.7 µM and 77.8 µM
  TGI: > 100 µM
786-0 renal
  TGI: > 100 µM
SF-268 CNS
  GI50: 12.4 µM and > 100 µM
  TGI: 55.2 µM and > 100 µM
DMS 114 small cell lung
  GI50: 24.6 µM and > 100 µM
  TGI: > 100 µM
OVCAR-3 ovarian
  TGI: 33.2 µM
RPMI-8226 leukemia
  GI50: 34.6 µM and > 100 µM
  TGI: > 100 µM
K-562 leukemia
  TGI: > 100 µM
U251 CNS
  GI50: 20.6 µM and > 100 µM
  TGI: 71.6 µM and > 100 µM
KM12 colon
  TGI: > 100 µM
HCT-116 colon
  GI50: 23.1 µM and > 100 µM
  TGI: > 100 µM
COLO 205 colon
  TGI: > 100 µM
NCI-H522 lung
  GI50: 12.1 µM and > 100 µM
  TGI: 29.2 µM and > 100 µM
SNB-75 CNS
  GI50: 14.8 µM and > 100 µM
  TGI: 31.9 µM and > 100 µM
NCI-H226 lung
  TGI: > 100 µM
MOLT-4 leukemia
  TGI: > 100 µM
SK-OV-3 ovarian
  GI50: 25.3 µM and > 100 µM
  TGI: 70.3 µM and > 100 µM
M14 melanoma
  GI50: 34.7 µM and 88.9 µM
  TGI: > 100 µM
KM20L2 colon
  GI50: 35 µM and > 100 µM
  TGI: > 100 µM
UACC-62 melanoma
  GI50: 30.5 µM and > 100 µM
  TGI: > 100000 nM
IGROV1 ovarian
  TGI: > 100000 nM
DLD-1 colon
  TGI: > 100000 nM
SF-295 CNS
  GI50: 14.8 µM and > 100 µM
  TGI: 39 µM and > 100 µM
A498 renal
  GI50: 17.6 µM and > 100 µM
  TGI: 38.9 µM and > 100 µM
TK-10 renal
  TGI: > 100 µM
SK-MEL-5 melanoma
  TGI: > 100000 nM
SK-MEL-2 melanoma
  TGI: > 100 µM
EKVX NSCLC
  TGI: > 100 µM
SN12C renal
  TGI: > 100 µM
SW-620 colon
  TGI: > 100 µM
XF 498 CNS
  TGI: > 100 µM
OVCAR-5 ovarian
  GI50: 31.3 µM and > 100 µM
  TGI: > 100 µM
SF-539 CNS
  GI50: 15.2 µM and > 100 µM
  TGI: 31.6 µM and > 100 µM
LXFL 529 NSCLC
  GI50: 26 µM and > 100 µM
  TGI: > 100 µM
NCI-H23 lung
  GI50: 22.2 µM and > 100 µM
  TGI: > 100 µM
DMS 273 small cell lung
  TGI: > 100 µM
SNB-19 CNS
  GI50: 13.9 µM and > 100 µM
  TGI: 39.4 µM and > 100 µM
A549 NSCLC
  TGI: > 100 µM
UO-31 renal
  GI50: 10.4 µM and > 100 µM
  TGI: 23.5 µM and > 100 µM
ACHN renal
  GI50: 24 µM and > 100 µM
  TGI: > 100 µM
SNB-78 CNS
  GI50: 12.4 µM and > 100 µM
  TGI: 39.6 µM and > 100 µM
SK-MEL-28 melanoma
  GI50: 27.6 µM and > 100 µM
  TGI: > 100 µM
M19-MEL melanoma
  GI50: 34.3 µM and > 100 µM
  TGI: > 100 µM
OVCAR-4 ovarian
  GI50: > 100 µM
  TGI: > 100 µM
HOP-62 NSCLC
  GI50: 23.6 µM and > 100 µM
  TGI: 57.1 µM and > 100 µM
HOP-18 NSCLC
  TGI: > 100 µM

Source: PubChem BioAssay (NCI)
